Measured values from ChEMBL document CHEMBL5260825, “Chemical Constituents of Bryophytes: Structures and Biological Activity” (J Nat Prod, 2018).
In brackets after ≈: the same amount, converted by molar mass. Several values for one entry are separate records, joined by “and”; a condition that tells them apart may be missing. Equal entries are not always repeated.

Key:
[1] = test system: Candida albicans; experiment: Antifungal activity against Candida albicans assessed as inhibition of fungal growth by MTT method; format: functional
[2] = molecular target: DNA polymerase beta (Homo sapiens, UniProt P06746); experiment: Inhibition of DNA polymerase beta (unknown origin)
[3] = test system: Trichostrongylus colubriformis; experiment: Anthelmintic activity against third stage larvae of Trichostrongylus colubriformis by microscope based analysis; format: functional, organism-based
[4] = test system: Phytophthora infestans; experiment: Antifungal activity against Phytophthora infestans assessed as inhibition of microbial growth by microtiter plate based analysis; format: functional, organism-based
[5] = test system: Zymoseptoria tritici; experiment: Antifungal activity against Zymoseptoria tritici assessed as inhibition of microbial growth by microtiter plate based analysis; format: functional, organism-based
[6] = test system: Candida albicans; experiment: Antifungal activity against Candida albicans assessed as inhibition of fungal growth by MTT assay; format: functional
[7] = test system: Trypanosoma brucei brucei; experiment: […] activity against Trypanosoma brucei brucei GUTat 3.1 assessed as inhibition of parasite growth measured after 72 hrs by alamar blue assay; format: functional, organism-based; conditions: GUTat 3.1, 72 h, read-out: EC50
[8] = test system: Pyricularia oryzae; experiment: Antifungal activity against Pyricularia oryzae assessed as inhibition of microbial growth by microtiter plate based analysis; format: functional, organism-based
[9] = Toxicity in brine shrimp assessed as lethality; conditions: artemia salina
[10] = test system: Pyricularia oryzae; experiment: Antifungal activity against Pyricularia oryzae assessed as inhibition of microbial growth; format: functional, organism-based
[11] = test system: Peritoneal macrophage cell; experiment: Inhibition of superoxide anion radical release in guinea pig peritoneal macrophages; format: functional, cell-based; conditions: Cavia porcellus
[12] = test system: RAW264.7; experiment: Inhibition of LPS-induced NO production in mouse RAW264.7 cells; format: functional, cell-based
[13] = test system: Cladosporium cucumerinum; experiment: Antifungal activity against Cladosporium cucumerinum assessed as inhibition of microbial growth by bioautographic TLC method; format: functional
[14] = molecular target: Procathepsin L (Homo sapiens) (UniProt P07711); experiment: Inhibition of Cathepsin L (unknown origin) at 0.00001 M relative to control; conditions: dose 10 µM
[15] = molecular target: Cathepsin B (Homo sapiens) (UniProt P07858); experiment: Inhibition of Cathepsin B (unknown origin) at 0.00001 M relative to control; conditions: dose 10 µM
[16] = test system: RPMI-7951; experiment: Antiproliferative activity against human RPMI-7951 cells assessed as cell growth inhibition; format: functional; conditions: read-out: ED50 (the source's name)
[17] = test system: U-251; experiment: Antiproliferative activity against human U-251MG cells assessed as cell growth inhibition; format: functional; conditions: read-out: ED50 (the source's name)
[18] = test system: KB; experiment: Antiproliferative activity against human KB cells assessed as cell growth inhibition; format: functional, cell-based
[19] = test system: HL-60; experiment: Antiproliferative activity against human HL-60 cells assessed as cell growth inhibition; format: functional, cell-based
[20] = molecular target: T1, Polyunsaturated fatty acid 5-lipoxygenase (Homo sapiens) (UniProt P09917); experiment: Inhibition of ALOX5 (unknown origin) at 0.000001 M relative to control; conditions: dose 1 µM
T1 sequence (whole entry): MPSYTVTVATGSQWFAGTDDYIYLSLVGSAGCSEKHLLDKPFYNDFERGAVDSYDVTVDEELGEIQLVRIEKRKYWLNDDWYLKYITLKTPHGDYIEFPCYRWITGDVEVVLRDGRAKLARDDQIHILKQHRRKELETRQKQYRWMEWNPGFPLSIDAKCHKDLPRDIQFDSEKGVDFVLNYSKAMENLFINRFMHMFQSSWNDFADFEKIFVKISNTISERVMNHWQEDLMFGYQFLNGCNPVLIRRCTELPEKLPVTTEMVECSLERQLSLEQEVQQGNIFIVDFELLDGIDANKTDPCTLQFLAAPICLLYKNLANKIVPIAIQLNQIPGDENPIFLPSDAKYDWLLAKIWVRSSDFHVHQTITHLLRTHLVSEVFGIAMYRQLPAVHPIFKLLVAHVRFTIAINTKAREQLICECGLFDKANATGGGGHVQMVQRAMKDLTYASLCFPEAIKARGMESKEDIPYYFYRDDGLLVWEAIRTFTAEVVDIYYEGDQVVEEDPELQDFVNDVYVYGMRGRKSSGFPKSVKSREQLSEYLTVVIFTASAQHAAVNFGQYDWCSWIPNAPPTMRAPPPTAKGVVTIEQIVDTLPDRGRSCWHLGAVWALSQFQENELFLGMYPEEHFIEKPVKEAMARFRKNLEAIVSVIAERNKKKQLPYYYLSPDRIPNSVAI

[21] = molecular target: Cyclooxygenase (Homo sapiens, UniProt P35354+P23219); experiment: Inhibition of COX (unknown origin); format: protein assay
[22] = test system: Bacillus subtilis; experiment: Antibacterial activity against Bacillus subtilis assessed as inhibition of bacterial growth; format: functional
[23] = test system: Trichophyton mentagrophytes; experiment: Antifungal activity against Trichophyton mentagrophytes assessed as inhibition of microbial growth; format: functional
[24] = Antioxidant activity assessed as DPPH radical scavenging activity; format: functional
[25] = test system: RAW264.7; experiment: Inhibition of LPS-induced NO production in mouse RAW264.7 cells incubated for 24 hrs by Griess reagent based assay; format: functional, cell-based; conditions: RAW264.7, 24 h
[26] = test system: Staphylococcus aureus; experiment: Antibacterial activity against Staphylococcus aureus assessed as inhibition of bacterial growth by agar diffusion method; format: functional
[27] = test system: P388; experiment: Antiproliferative activity against mouse P388 cells assessed as cell growth inhibition; format: functional, cell-based
[28] = test system: Panel NCI-60 (60 carcinoma cell lines); experiment: Antiproliferative activity against human Panel NCI-60 (60 carcinoma cell lines) assessed as cell growth inhibition; format: functional

Chain of Procathepsin L (Homo sapiens) (P07711 114-333 limits assumed): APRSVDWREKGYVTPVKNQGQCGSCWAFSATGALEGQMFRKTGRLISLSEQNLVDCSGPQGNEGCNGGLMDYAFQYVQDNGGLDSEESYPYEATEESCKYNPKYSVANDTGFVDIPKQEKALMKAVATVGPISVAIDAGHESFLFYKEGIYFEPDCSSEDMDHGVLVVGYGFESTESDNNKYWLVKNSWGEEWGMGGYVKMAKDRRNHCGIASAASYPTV

SMILES: CO[C@@H]1CC[C@]2(C)C3CCC4C(=CCC5C(C)(C)[C@H](O)CC[C@]45C)C[C@]3(C)CC[C@H]2C1(C)C (some centres not stated)
- MIC [1]: 2 mg/L (≈ 4.38 µM)

SMILES: Oc1cccc(CCc2ccc(Oc3cc(CCc4cccc(O)c4)cc(O)c3O)cc2)c1 [PERROTETTIN F]
- IC50 [2]: 14.4 µM

SMILES: COc1cc(/C=C\c2ccccc2)ccc1O
- IC50 [3]: 70 mg/L (≈ 309 µM)

SMILES: CC1=CC[C@H]2C(C)(C)CCC[C@]2(C)[C@H]1C=O
- IC50 [4]: < 0.03 mg/L
- IC50 [5]: 17.6 mg/L

SMILES: Oc1ccc2cc1Oc1ccc(cc1)CCc1c(cc(O)c(O)c1O)-c1ccc(cc1O)CC2
- MID [6]: 4 µg/mL

SMILES: COC(=O)c1c(C)cc(OC(=O)c2c(C)cc(O)c(C=O)c2O)c(C)c1O [ATRANORIN]
- MIC [1]: 2 mg/L (≈ 5.34 µM)

SMILES: CC1=CCC[C@]2(C)CC[C@@H](C(C)(C)O)C[C@@H]12
- EC50 [7]: 0.45 µM

SMILES: Oc1ccc2c(c1)CCc1ccc(O)c(c1)-c1cc(ccc1O)CCc1ccc-2c(O)c1 [ISOPLAGIOCHIN D]
- IC50 [8]: 4 mg/L
- IC50 [5]: 23.5 mg/L

SMILES: COc1ccc(CCc2c(Cl)ccc(O)c2Cl)cc1Cl
- LC50 [9]: 0.42 ppm

SMILES: Cc1ccc2c(c1O)[C@@H](C(C)C)CC[C@H]2C
- IC50 [10]: 1.7 mg/L

SMILES: C[C@@H]1CC[C@H]2C(=O)c3ccoc3C[C@@]12C
- IC50 [11]: 12.5 mg/L (≈ 61.2 µM)
- IC50 [12]: 1.7 µM

SMILES: C=C1CC[C@H]2C(=C)CC[C@@H]3[C@H](OC(=O)[C@@H]3C)[C@@H]12
- MIC [13]: 3 mg/L

SMILES: C=C1CC[C@]2(C)[C@@H](O)[C@H]1[C@]1(C)CCC[C@@]12C
- IC50 [4]: 0.1 mg/L

SMILES: CC1=CCc2c(O)cc(CCc3ccccc3O)cc2OC1
- IC50 [12]: 4.5 µM

SMILES: Oc1ccc2cc1Oc1ccc(cc1)CCc1cccc(c1)Oc1c(O)cccc1CC2
- inhibition [14]: 95%
- inhibition [15]: 93%

SMILES: O=C(/C=C\c1ccccc1)c1cc(O)cc2c1CC(c1ccccc1)O2 (configuration not stated) [PALLIDISETIN B]
- EC50 [16]: 1 mg/L (≈ 2.92 µM)
- EC50 [17]: 2 mg/L (≈ 5.84 µM)

SMILES: Oc1ccc2c(c1)CCc1ccc(cc1)Oc1cc(cc(-c3cc4cc(c3O)Oc3ccc(cc3)CCc3cc(O)ccc3-c3ccc(cc3O)CC4)c1O)CCc1ccc-2c(O)c1 [PUSILATIN B]
- IC50 [2]: 13 µM

SMILES: COc1cc(/C=C/c2ccccc2)ccc1O
- IC50 [3]: 60 mg/L (≈ 265 µM)

SMILES: Oc1ccc2c(c1)CCc1ccc(cc1)Oc1cc(cc(-c3cc4c(cc3O)CCc3ccc(cc3)Oc3cc(ccc3O)CCc3ccc-4c(O)c3)c1O)CCc1ccc-2c(O)c1
- IC50 [2]: 5.16 µM

SMILES: C=C1C(=O)O[C@H]2C[C@@]3(C)CCC=C(C)[C@@H]3C[C@@H]12
- IC50 [18]: 3.3 mg/L (≈ 14.2 µM)
- IC50 [19]: 1.4 mg/L (≈ 6.03 µM)

SMILES: CC1=CCc2c(cc(CCc3ccccc3)c(C(=O)O)c2O)OC1
- inhibition [20]: 4%
- IC50 [21]: 39.7 µM

SMILES: Oc1cc2ccc1Oc1cccc(c1)CCc1ccc(O)c(c1)Oc1ccc(cc1)CC2
- MID [6]: 0.25 µg/mL
- MIC [22]: 1.5 mg/L (≈ 3.53 µM)
- MIC [23]: 1 mg/L

SMILES: Clc1ccc(COC(Cn2ccnc2)c2ccc(Cl)cc2Cl)c(Cl)c1 (configuration not stated) [MICONAZOLE]
- MID [6]: 0.01 µg

SMILES: CC(=O)N1CCN(c2ccc(OCC3COC(Cn4ccnc4)(c4ccc(Cl)cc4Cl)O3)cc2)CC1 (configuration not stated) [KETOCONAZOLE]
- LC50 [9]: 14.9 ppm

SMILES: Cc1cc([C@@]2(C)CCCC2(C)C)c(O)c(O)c1Cc1cc(O)c(O)c([C@@]2(C)CCCC2(C)C)c1
- IC50 [24]: 2.7 mg/L (≈ 5.79 µM)
- IC50 [25]: 4.1 µM
- MIC [22]: 2 mg/L (≈ 4.29 µM)
- IC50 [19]: 2.4 mg/L (≈ 5.14 µM)
- diameter of the inhibition zone (DIZ) [26]: 13 mm

SMILES: COc1cc(OC)c2c3c1-c1c(O)cccc1[C@@H]1Oc4ccccc4[C@@H](C[C@@H]2O)[C@@H]31
- EC50 [17]: 0.8 mg/L (≈ 1.99 µM)

SMILES: C=C1C(=O)[C@]23O[C@@H]2[C@H]1CCC(=O)[C@]1(C)CCCC(C)(C)[C@H]1C[C@H]3O
- GI50 [27]: 0.27 µg/mL and 800 nM
- IC50 [27]: 0.27 mg/L (≈ 0.812 µM)
- GI50 [28]: 2.5 µM

SMILES: Cc1cc(O)c(O)c([C@@]2(C)CCCC2(C)C)c1
- IC50 [24]: 1.9 mg/L (≈ 8.11 µM)
- IC50 [25]: 4.1 µM
- MIC [22]: 2 mg/L (≈ 8.53 µM)
- IC50 [19]: 1.4 mg/L (≈ 5.97 µM)
- diameter of the inhibition zone (DIZ) [26]: 17 mm
